Where a name gives a salt, the structure may show the parent alone. Marks after values point to notes of the source that are not given here.
Legend:
Format in all cases: in vivo
Male ICR mice [1] = assay: Antagonism to imipramine-induced constipation: carbon marker in the caecum
Experimental: Male ICR mice were fasted overnight in wire-bottomed cages to prevent coprophagia, and 10 mice were used for each group. Imipramine hydrochloride (Wako Pure Chemical Industries, Ltd., Osaka, Japan) at 60 mg/kg was injected intraperitoneally to the animals. Immediately after the imipramine-injection, 0.1 mL of carbon marker (10% carbon powder suspension in 5% gum Arabic) and vehicle (physiological saline solution containing 0.01% polysorbate 80 and 0.5% ethanol) or test substance (13,14-dihydro-15-keto-16,16-difluoro-PGE1) in an administration volume of 5 mL/kg were orally administered. A normal control group received carbon marker and vehicle in the above volume orally without the imipramine-injection. One hundred and fifty minutes after the administration of carbon marker, animals were sacrificed by cervical dislocation, and examined the caecum for the presence of carbon marker. It was judged as a positive response when carbon marker was found in the caecum (positive scores).
The effect to the imipramine-induced constipation was evaluated on the cathartic (sennoside) clinically used for the treatment of the constipation in patients. Preparation and dose levels of sennoside were the same as described in example 2. The experimental procedure was the same as described in example 4.

Male ICR mice [2] = assay: Antagonism to morphine-induced constipation: graphite marker in the caecum; conditions: for Effect on morphine-induced constipation: at the clinical daily dosage and at 10 times of the clinical daily dosage
Male ICR mice [3] = assay: Effect on analgesic action of morphine: tail-pinch response time
Experimental: Male ICR mice were fasted overnight in wire-bottomed cages to prevent coprophagia. The tail of the animal was pinched with clamp forceps, and the response time from the tail-pinch to fierce striking, biting or crying was measured. 18 mice whose response time of 2 second or shorter were used as test animals. […] Immediately after the morphine-injection, vehicle (physiological saline containing 0.01% polysorbate 80 and 0.5% ethanol) or 1, 10, or 100 μg/kg test substance (13,14-dihydro-15-keto-16,16-difluoro-PGE1) dissolved in the vehicle was administered orally in an administration volume of 5 mL/kg. The animals of normal control group received vehicle orally in the above volume without morphine-injection.
The response time of each animal following tail-pinch was measured 30, 60, 90, 120 and 150 minutes after the administration. If a mouse took longer than 10 seconds to respond, measurement was stopped to avoid injuring the tail tissue, and the response time was recorded as 10 second.

[4] = imipramine 60 mg/kg i.p. + vehicle orally, Example 4, Table 5
[5] = imipramine 60 mg/kg i.p. + vehicle, Example 5, Table 6
[6] = morphine 5 mg/kg i.p. + sodium picosulfate 0.15 mg/kg, 150 min after graphite marker
[7] = morphine 5 mg/kg i.p. + sodium picosulfate 1.5 mg/kg, 150 min after graphite marker
[8] = imipramine 60 mg/kg i.p. + sennoside 0.48 μg/kg, 150 min after carbon marker
[9] = imipramine 60 mg/kg i.p. + sennoside 4.8 μg/kg, 150 min after carbon marker
[10] = morphine 5 mg/kg i.p. + sennoside 0.48 mg/kg, 150 min after graphite marker
[11] = morphine 5 mg/kg i.p. + sennoside 4.8 mg/kg, 150 min after graphite marker
[12] = imipramine 60 mg/kg i.p. + test substance 10 μg/kg orally, 150 min after carbon marker
[13] = imipramine 60 mg/kg i.p. + test substance 100 μg/kg orally, 150 min after carbon marker

CN(C)CCCN1c2ccccc2CCc2ccccc21 [Imipramine, Imipramine hydrochloride] was tested. Which “Number of animals with positive scores/Number of animals tested” value (Male ICR mice [1]; [4]) did it give?
The value was 1/10.

What about the “Ratio of animals with positive scores” value (Male ICR mice [1]; [4]) of the same molecule?
Its value is 10%.

And the “Number of animals with positive scores/Number of animals tested” value (Male ICR mice [1]; [5])?
The value was 1/10.

And the “Ratio of animals with positive scores” value (Male ICR mice [1]; [5])?
Its value is 10%.

Which results are given for O=S(=O)(O)Oc1ccc(C(c2ccc(OS(=O)(=O)O)cc2)c2ccccn2)cc1 [sodium picosulfate, Sodium picosulfate]?
Effect on morphine-induced constipation (Male ICR mice [2]): no effect; Number of animals with positive scores/Number of animals tested (Male ICR mice [2]; [6]): 3/10; Ratio of animals with positive scores (Male ICR mice [2]; [6]): 30%; Number of animals with positive scores/Number of animals tested (Male ICR mice [2]; [7]): 4/10; Ratio of animals with positive scores (Male ICR mice [2]; [7]): 40%

Which “Effect on the imipramine-induced constipation” value (Male ICR mice [1]; Example 5, results of Table 6) does the source give for Sennoside here?
The value was “no effect”.

What about the “Number of animals with positive scores/Number of animals tested” value (Male ICR mice [1]; [8]) of the same molecule?
Its value is 2/10.

What about the “Ratio of animals with positive scores” value (Male ICR mice [1]; [8]) of the same molecule?
Its value is 20%.

And the “Number of animals with positive scores/Number of animals tested” value (Male ICR mice [1]; [9])?
Its value is 2/10.

What about the “Ratio of animals with positive scores” value (Male ICR mice [1]; [9]) of the same molecule?
The value was 20%.

What about the “Effect on morphine-induced constipation” value (Male ICR mice [2]) of the same molecule?
The value was “no effect”.

What about the “Number of animals with positive scores/Number of animals tested” value (Male ICR mice [2]; [10]) of the same molecule?
Its value is 2/10.

And the “Ratio of animals with positive scores” value (Male ICR mice [2]; [10])?
Its value is 20%.

And the “Number of animals with positive scores/Number of animals tested” value (Male ICR mice [2]; [11])?
Its value is 2/10.

What about the “Ratio of animals with positive scores” value (Male ICR mice [2]; [11]) of the same molecule?
The value was 20%.

What does the source list for CCCCC(F)(F)C(=O)CCC1C(O)CC(=O)C1CCCCCCC(=O)O (centres unmarked) [test substance, 13,14-dihydro-15-keto-16,16-difluoro-PGE1]?
Number of animals with positive scores/Number of animals tested (Male ICR mice [1]; [12]): 3/10; Ratio of animals with positive scores (Male ICR mice [1]; [12]): 30%; Number of animals with positive scores/Number of animals tested (Male ICR mice [1]; [13]): 7/10**; Ratio of animals with positive scores (Male ICR mice [1]; [13]): 70%; Ratio of animals with positive scores (Male ICR mice [2]; morphine 5 mg/kg i.p. + test substance 1 μg/kg orally, 150 min after graphite marker): 60%; Ratio of animals with positive scores (Male ICR mice [2]; morphine 5 mg/kg i.p. + test substance 10 μg/kg orally, 150 min after graphite marker): 87%; Ratio of animals with positive scores (Male ICR mice [2]; morphine 5 mg/kg i.p. + test substance 100 μg/kg orally, 150 min after graphite marker): 93%; Antagonism of morphine-induced constipation compared with control (morphine+vehicle) group (Male ICR mice [2]; test substance 1, 10 or 100 μg/kg orally immediately after morphine): significantly antagonized; Response time, mean ± S.E. (Male ICR mice [3]; morphine 5 mg/kg i.p. + test substance 1 μg/kg orally, 30 min after administration): 3.2 ± 0.7 s; Response time, mean ± S.E. (Male ICR mice [3]; morphine 5 mg/kg i.p. + test substance 1 μg/kg orally, 60 min after administration): 2.3 ± 0.6^+ sec.; Response time, mean ± S.E. (Male ICR mice [3]; morphine 5 mg/kg i.p. + test substance 1 μg/kg orally, 90 min after administration): 1.5 ± 0.2 s; Response time, mean ± S.E. (Male ICR mice [3]; morphine 5 mg/kg i.p. + test substance 1 μg/kg orally, 120 min after administration): 1.3 ± 0.1 s; Response time, mean ± S.E. (Male ICR mice [3]; morphine 5 mg/kg i.p. + test substance 1 μg/kg orally, 150 min after administration): 1.3 ± 0.1 s; Response time, mean ± S.E. (Male ICR mice [3]; morphine 5 mg/kg i.p. + test substance 1 μg/kg orally, before administration): 1.0 ± 0.1 s; Response time, mean ± S.E. (Male ICR mice [3]; morphine 5 mg/kg i.p. + test substance 10 μg/kg orally, 30 min after administration): 3.4 ± 0.5 s; Response time, mean ± S.E. (Male ICR mice [3]; morphine 5 mg/kg i.p. + test substance 10 μg/kg orally, 60 min after administration): 1.8 ± 0.2 s; Response time, mean ± S.E. (Male ICR mice [3]; morphine 5 mg/kg i.p. + test substance 10 μg/kg orally, 90 min after administration): 1.4 ± 0.1 s; Response time, mean ± S.E. (Male ICR mice [3]; morphine 5 mg/kg i.p. + test substance 10 μg/kg orally, 120 min after administration): 1.3 ± 0.1 s; Response time, mean ± S.E. (Male ICR mice [3]; morphine 5 mg/kg i.p. + test substance 10 μg/kg orally, 150 min after administration): 1.2 ± 0.1 s; Response time, mean ± S.E. (Male ICR mice [3]; morphine 5 mg/kg i.p. + test substance 10 μg/kg orally, before administration): 1.0 ± 0.1 s; Response time, mean ± S.E. (Male ICR mice [3]; morphine 5 mg/kg i.p. + test substance 100 μg/kg orally, 30 min after administration): 2.9 ± 0.6 s; Response time, mean ± S.E. (Male ICR mice [3]; morphine 5 mg/kg i.p. + test substance 100 μg/kg orally, 60 min after administration): 1.8 ± 0.3 s; Response time, mean ± S.E. (Male ICR mice [3]; morphine 5 mg/kg i.p. + test substance 100 μg/kg orally, 90 min after administration): 1.5 ± 0.1 s; Response time, mean ± S.E. (Male ICR mice [3]; morphine 5 mg/kg i.p. + test substance 100 μg/kg orally, 120 min after administration): 1.2 ± 0.1 s; Response time, mean ± S.E. (Male ICR mice [3]; morphine 5 mg/kg i.p. + test substance 100 μg/kg orally, 150 min after administration): 1.3 ± 0.1 s; Response time, mean ± S.E. (Male ICR mice [3]; morphine 5 mg/kg i.p. + test substance 100 μg/kg orally, before administration): 1.0 ± 0.1 s; Effect on the analgesic action of morphine (Male ICR mice [3]; test substance 1, 10 or 100 μg/kg orally, compared with morphine+vehicle group): did not affect

With CN1CC[C@]23c4c5ccc(O)c4O[C@H]2[C@@H](O)C=C[C@H]3[C@H]1C5.Cl [Morphine, Morphine hydrochloride, reference compound] as the molecule, how does the “Number of animals with positive scores/Number of animals tested” value (Male ICR mice [2]; morphine 5 mg/kg i.p. + vehicle (0.5% tragacanth solution), Example 2, Table 2) read?
Its value is 2/10.

And the “Number of animals with positive scores/Number of animals tested” value (Male ICR mice [2]; morphine 5 mg/kg i.p. + vehicle (physiological saline), Example 2, Table 3)?
Its value is 3/10.

And the “Number of animals with positive scores/Number of animals tested” value (Male ICR mice [2]; morphine 5 mg/kg i.p. + vehicle (saline, 0.01% polysorbate 80, 0.5% ethanol) orally, Example 1, Table 1)?
The value was 3.

And the “Number of animals with positive scores/Number of animals tested” value (Male ICR mice [2]; morphine 5 mg/kg i.p. + vehicle (saline, 0.01% polysorbate 80, 0.5% ethanol) orally, Example 1, Table 1, hydrochloride)?
Its value is 3/15.

And the “Response time, mean ± S.E.” value (Male ICR mice [3]; morphine 5 mg/kg i.p. + vehicle orally, 30 min after administration)?
The value was 2.8 ± 0.6 s.

What about the “Response time, mean ± S.E.” value (Male ICR mice [3]; morphine 5 mg/kg i.p. + vehicle orally, 60 min after administration) of the same molecule?
Its value is 1.9 ± 0.3 s.

What about the “Response time, mean ± S.E.” value (Male ICR mice [3]; morphine 5 mg/kg i.p. + vehicle orally, 90 min after administration) of the same molecule?
Its value is 1.8 ± 0.4^+ sec.

What about the “Response time, mean ± S.E.” value (Male ICR mice [3]; morphine 5 mg/kg i.p. + vehicle orally, 120 min after administration) of the same molecule?
Its value is 1.4 ± 0.2 s.

And the “Response time, mean ± S.E.” value (Male ICR mice [3]; morphine 5 mg/kg i.p. + vehicle orally, 150 min after administration)?
Its value is 1.2 ± 0.1 s.

What about the “Response time, mean ± S.E.” value (Male ICR mice [3]; morphine 5 mg/kg i.p. + vehicle orally, before administration) of the same molecule?
The value was 1.0 ± 0.1 s.

— patent US6982283B2, “Method for treating drug-induced constipation” (Sucampo AG, priority 2001, dated 2006)
